The term IC50 denotes the concentration needed to halve the response being measured.

Drawing on patent EP0855398B1, “SESQUITERPENE DERIVATIVES HAVING ANTIVIRAL ACTIVITY” (SHIONOGI & CO., LTD., priority 1995, dated 1997), this text covers IC50 and CC50 for 21 molecules.

The subject of data set [1] is Influenza virus A/WSN/33 (H1N1). Description: microbe, parasite or virus in culture. In kind it is cell-based. The note with it: 72 h.
The next data set in a line: in vitro. Particulars: bovine; for CC50 at 72 h: mdbk cells.
Where [2] appears, read: viral strain: Influenza virus A/WSN/33 (H1N1), Cell: MDBK, […], 3 days, read-out: IC50.

In brackets after ≈: the same amount, converted by molar mass. Where two headings read alike, the source gives them in different places.

As for `C[C@H]1CC[C@H]2C(C)(C)[C@@H](O)[C@@H](OS(=O)(=O)c3ccccc3)C[C@]23Oc2c(c(O)cc4c2CNC4=O)C[C@]13C` [Compound (50e), (6a R, 7 S, 9a S, 11 R, 12 S, 13a S)-2,3,6,6a, 7,8,9,9a, 10, 11,12,13-dodecahydro-5,11-dihydroxy-6a, 7, 10, 10-tetramethyl-12-phenylsulfonyloxy-3-oxo-1H-benzo[8,8a][1]benzopyrano[2,3-e]isoindole], the half-inhibitory concentration (IC50) in data set [1] (setting [2]) fell in the range of 0.0016 to 0.0032 µg/mL (≈ 0.00295 to 0.00591 µM). In “in vitro”, this molecule registered a CC50 of over 10 µg/mL.

Regarding `C[C@H]1CC[C@H]2C(C)(C)[C@@H](O)CC[C@]23Oc2c(c(O)cc4c2C(=O)NC4=O)C[C@]13C` [(32a), (6aR, 7S, 9aS, 115, 13aS)-2,3,6,6a, 7,8,9,9a, 10, 11, 12, 13-dodecahydro-5, 11-dihydroxy-6a, 7, 30, 10-tetramethyl-13-dioxo-1H-benzo[8,8a][1]benzopyrano[2,3-e]isoindole], the IC50 in data set [1] (setting [2]) lay in the range of 0.001 to 0.002 µg/mL (≈ 0.0025 to 0.00501 µM). The CC50 at 72 h in “in vitro” was found to be 20 µg/mL (≈ 50.1 µM).

For `CCCCN1C(=O)c2cc(O)c3c(c2C1=O)O[C@@]12CC[C@H](O)C(C)(C)[C@@H]1CC[C@H](C)[C@@]2(C)C3` [Compound (32c), (6aR, 7S, 9aS, 11S, 13aS)-2-butyl-2,3,6,6a, 7,8,9,9a, 10, 11, 12, 13-dodecahydro-5, 11-dihydroxy-6a, 7, 10, 10-tetramethyl-13-dioxo-1H-benzo[8,8a][1]benzopyrano[2,3-e]isoindole], in data set [1] (setting [2]), the IC50 was 0.04 to 0.08 µg/mL (≈ 0.0878 to 0.176 µM). In “in vitro”, the CC50 at 72 h amounted to 5 µg/mL (≈ 11 µM).

`C[C@H]1CC[C@H]2C(C)(C)[C@@H](O)CC[C@]23Oc2c(c(OP(=O)(O)O)cc4c2CNC4=O)C[C@]13C.[Na]` [Compound (59a), (6aR, 7S, 9aS, 11S, 13aS)-2,3,6,6a, 7,8,9,9a, 10, 11, 12, 13-dodecahydro-11-hydroxy-5-dihydroxyphosphinyloxy-6a, 7,10, 10-tetramethyl-3-oxo-1H-benzo[8,8a][1]benzopyrano[2,3-e]isoindole monosodium salt] returned an IC50 in data set [1] (H1N1|WSN, MDBK) of 0.001 µg/mL. Further, the CC50 in the data set “in vitro” was over 10 µg/mL.

Turning to `CC(=O)O[C@@H]1C(=NO)C[C@@]23Oc4c(c(O)cc5c4CNC5=O)C[C@]2(C)[C@@H](C)CC[C@H]3C1(C)C` [Compound (53b), (6aR, 7S, 9aS, 11S, 13aS)-11-acetoxy-2,3,6,6a, 7,8,9,9a, 10, 11, 12, 13-dodecahydro-5-hydroxy-12-hydroxyimino-6a, 7, 10, 10-tetramethyl-3-oxo-1H-benzo[8,8a][1]benzopyrano[2,3-e]isoindole], the IC50 in data set [1] (setting [2]) stood at 0.08 µg/mL (≈ 0.175 µM). For the same molecule, the CC50 in the data set “in vitro” was over 10 µg/mL.

Regarding `C[C@H]1CC[C@H]2C(C)(C)CCC[C@]23Oc2c(c(O)cc4c2CNC4=O)C[C@]13C` [Compound (42), (6a R, 7 S, 9a S, 13a S)-2,3,6,6a, 7,8,9,9a, 10, 11, 12, 13-dodecahydro-5-hydroxy-6a, 7, 10, 10-tetramethyl-3-oxo-1H-benzo [8,8a] [1] benzopyrano[2,3-e]isoindole], the IC50 in data set [1] (setting [2]) was determined as 0.002 µg/mL (≈ 0.00541 µM). In “in vitro”, this molecule returned a CC50 of 5 µg/mL (≈ 13.5 µM).

Turning to `C[C@H]1CC[C@H]2C(C)(C)[C@@H](NS(C)(=O)=O)CC[C@]23Oc2c(c(O)cc4c2CNC4=O)C[C@]13C` [Compound (47c), (6aR, 7S, 9aS, 11S, 13aS)-2,3,6,6a, 7,8,9,9a, 10, 11, 12, 13-dodecahydro-5-hydroxy-6a, 7, 10, 10-tetramethyl-11-methanesulfonylamino-3-oxo-1H-benzo[8,8a][1]benzopyrano[2,3-e]isoindole], in data set [1] (setting [2]), the half-inhibitory concentration (IC50) was 0.01 µg/mL (≈ 0.0216 µM). The molecule further gave a CC50 in “in vitro” of over 10 µg/mL.

Regarding `CON=C1CC[C@@]23Oc4c(c(O)cc5c4CNC5=O)C[C@]2(C)[C@@H](C)CC[C@H]3C1(C)C` [Compound (51b), (6a R, 7 S, 9a S, 13a S)-2,3,6,6a, 7,8,9,9a, 10, 11, 12, 13-dodecahydro-5-hydroxy-11-methoxyimino-6a, 7, 10, 10-tetramethyl-3-oxo-1H-benzo[8,8a][1]benzopyrano[2,3-e]isoindole], in data set [1] (setting [2]), the IC50 was found to be 0.003 µg/mL (≈ 0.00727 µM). This molecule also returned a CC50 in the data set “in vitro” of 5 to 10 µg/mL (≈ 12.1 to 24.2 µM).

Regarding `CC(=O)O[C@H]1C[C@@]23Oc4c(c(O)cc5c4CNC5=O)C[C@]2(C)[C@@H](C)CC[C@H]3C(C)(C)[C@H]1O` [Compound (50b), (6a R, 7 S, 9a S, 11 R, 12 S, 13a S)-12-acetoxy-2,3,6,6a,7,8,9,9a, 10, 11, 12, 13-dodecahydro-5,11-dihydroxy-6a, 7, 10, 10-tetramethyl-3-oxo-1H-benzo[8,8a][1]benzopyrano[2,3-e]isoindole], the IC50 in data set [1] (setting [2]) was determined as 0.01 µg/mL (≈ 0.0225 µM). Besides, the CC50 in “in vitro” was over 10 µg/mL.

Turning to `CC(=O)N1Cc2c(cc(O)c3c2O[C@@]24CC[C@H](O)C(C)(C)[C@@H]2CC[C@H](C)[C@@]4(C)C3)C1=O` [Compound (28f), (6aR, 7S, 9aS, 115, 13aS)-2-acetyl-2,3,6,6a, 7,8,9,9a, 10, 11, 12, 13-dodecahydro-5,11-dihydroxy-6a, 7, 10, 10-tetramethyl-3-oxo-1H-benzo[8,8a][1]benzopyrano[2,3-e]isoindole], the IC50 in data set [1] (setting [2]) stood at 0.02 µg/mL (≈ 0.0468 µM). In “in vitro”, the CC50 at 72 h is over 10 µg/mL.

As to `C[C@H]1CC[C@H]2C(C)(C)[C@@H](O)[C@@H](OS(C)(=O)=O)C[C@]23Oc2c(c(O)cc4c2CNC4=O)C[C@]13C` [Compound (50d), (6a R, 7 S, 9a S, 11 R, 12 S, 13a S)-2,3,6,6a, 7,8,9,9a, 10, 11,12,13-dodecahydro-5,11-dihydroxy-6a, 7,10, 10-tetramethyl-12-methanesulfonyloxy-3-oxo-1H-benzo[8,8a][1]benzopyrano[2,3-e]isoindole], in data set [1] (setting [2]), the IC50 was determined as 0.0016 µg/mL (≈ 0.00334 µM). Moreover, the CC50 in the data set “in vitro” is over 10 µg/mL.

On to `C[C@H]1NC(=O)c2cc(O)c3c(c21)O[C@@]12CC[C@H](O)C(C)(C)[C@@H]1CC[C@H](C)[C@@]2(C)C3` [Compound (67b), (1R, 6aR, 7S, 9aS, 11S, 13aS)-2,3,6,6a, 7,8,9,9a, 10, 11, 12, 13-dodecahydro-5, 11-dihydroxy-1,6a, 7, 10, 10-pentamethyl-3-oxo-1H-benzo[8,8a][1]benzopyrano[2,3-e]isoindole], for which, in data set [1] (setting [2]), the 50% inhibitory concentration (IC50) was found to be 0.032 µg/mL (≈ 0.0801 µM). The CC50 in “in vitro” was in the range of 25 to 50 µg/mL (≈ 62.6 to 125 µM).

As to `C[C@H]1CC[C@H]2C(C)(C)[C@@H](O)CC[C@]23Oc2c(c(O)cc4c2C(O)NC4=O)C[C@]13C` (stereo partly drawn) [Compound (30a), (6aR, 7S, 9aS, 11S, 13aS)-2,3,6,6a, 7,8,9,9a, 10, 11, 12, 13-dodecahydro-1,5, 11-trihydroxy-6a, 7, 10, 10-tetramethyl-3-oxo-1H-benzo[8,8a][1]benzopyrano[2,3-e]isoindole], the half-inhibitory concentration (IC50) in data set [1] (setting [2]) was 0.002 µg/mL (≈ 0.00498 µM). In the data set “in vitro”, this molecule showed a CC50 of over 40 µg/mL.

Turning to `C[C@H]1CC[C@H]2C(C)(C)C=CC[C@]23Oc2c(c(O)cc4c2CNC4=O)C[C@]13C` [Compound (41a), (6a R, 7 S, 9a S, 13a S)-2,3,6,6a, 7,8,9,9a, 10, 13-decahydro-5-hydroxy-6a, 7, 10, 10-tetramethyl-3-oxo-1H-benzo[8,8a][1]benzopyrano[2,3-e]isoindole], the IC50 in data set [1] (setting [2]) worked out at 0.002 µg/mL (≈ 0.00544 µM). The CC50 in the data set “in vitro” came out at 5 µg/mL (≈ 13.6 µM).

Turning to `C[C@H]1CC[C@H]2C(C)(C)[C@@H](O)CC[C@]23Oc2c(c(O)cc4c2CNC4=O)C[C@]13C` [(2)], the IC50 in data set [1] (setting [2]) was found to be 0.001 µg/mL (≈ 0.00259 µM). Moreover, the CC50 at 72 h in “in vitro” came out at 25 µg/mL (≈ 64.9 µM).

On to `C[C@H]1CC[C@H]2C(C)(C)[C@H](OS(C)(=O)=O)CC[C@]23Oc2c(c(O)cc4c2CNC4=O)C[C@]13C` [Compound (13b), (6a R, 7 S, 9a S, 11 R, 13a S)-2,3,6,6a, 7,8,9,9a, 10, 11, 12, 13-dodecahydro-5-hydroxy-6a, 7, 10, 10-tetramethyl-11-methanesulfonyloxy-3-oxo-1H-benzo[8,8a][1]benzopyrano[2,3-e]isoindole], for which, in data set [1] (setting [2]), the IC50 was found to be 0.02 µg/mL (≈ 0.0431 µM). Further, in “in vitro”, the CC50 amounted to 5 µg/mL (≈ 10.8 µM).

As for `CCCCN1Cc2c(cc(O)c3c2O[C@@]24CC[C@H](O)C(C)(C)[C@@H]2CC[C@H](C)[C@@]4(C)C3)C1=O` [Compound (28b), (6aR, 7S, 9aS, 11S, 13aS)-2-butyl-2,3,6,6a, 7,8,9,9a, 10, 11, 12, 13-dodecahydro-5, 11-dihydroxy-6a, 7, 10, 10-tetramethyl-3-oxo-1H-benzo[8,8a][1]benzopyrano[2,3-e]isoindole], the IC50 in data set [1] (setting [2]) amounted to 0.02 µg/mL (≈ 0.0453 µM). This molecule also had a CC50 in “in vitro” of 2.5 µg/mL (≈ 5.66 µM).

For the molecule `C[C@H]1CC[C@H]2C(C)(C)[C@@H](O)[C@@H](O)C[C@]23Oc2c(c(O)cc4c2CNC4=O)C[C@]13C` [Compound (50a), (6a R, 7 S, 9a S, 11 R, 12 S, 13a S)-2,3,6,6a, 7,8,9,9a, 10, 11, 12, 13-dodecahydro-5,11,12-trihydroxy-6a, 7, 10, 10-tetramethyl-3-oxo-1H-benzo[8,8a][1]benzopyrano[2,3-e]isoindole], the IC50 in data set [1] (setting [2]) was 0.004 µg/mL (≈ 0.00996 µM). For the same molecule, the CC50 in “in vitro” is over 40 µg/mL.

Consider `C[C@H]1CC[C@H]2C(C)(C)[C@@H](NS(=O)(=O)c3ccccc3)CC[C@]23Oc2c(c(O)cc4c2CNC4=O)C[C@]13C` [Compound (47d), (6aR, 7S, 9aS, 11S, 13aS)-2,3,6,6a, 7,8,9,9a, 10, 11, 12, 13-dodecahydro-5-hydroxy-6a, 7, 10, 10-tetramethyl-11-phenylsulfonylamino-3-oxo-1H-benzo[8,8a][1]benzopyrano[2,3-e]isoindole], for which, in data set [1] (setting [2]), the half-maximal inhibitory concentration (IC50) was determined as 0.003 µg/mL (≈ 0.00572 µM). The molecule further showed a CC50 in “in vitro” of 5 to 10 µg/mL (≈ 9.53 to 19.1 µM).

For `C[C@H]1CC[C@H]2C(C)(C)[C@@H](NC(=O)Nc3ccccc3)CC[C@]23Oc2c(c(O)cc4c2CNC4=O)C[C@]13C` [Compound (47e), (6aR, 7S, 9aS, 11S, 13aS)-2,3,6,6a, 7,8,9,9a, 10, 11, 12, 13-dodecahydro-5-hydroxy-6a, 7, 10, 10-tetramethyl-11-(3-phenylureido)-3-oxo-1H-benzo[8,8a][1]benzopyrano[2,3-e]isoindole], in data set [1] (setting [2]), the half-inhibitory concentration (IC50) was 0.025 µg/mL (≈ 0.0496 µM). The CC50 in “in vitro” was over 10 µg/mL.

In the case of `C[C@@H]1NC(=O)c2cc(O)c3c(c21)O[C@@]12CC[C@H](O)C(C)(C)[C@@H]1CC[C@H](C)[C@@]2(C)C3` [Compound (67a), (1S, 6aR, 7S, 9aS, 11S, 13aS)-2,3,6,6a, 7,8,9,9a, 10, 11, 12, 13-dodecahydro-5, 11-dihydroxy-1,6a, 7, 10, 10-pentamethyl-3-oxo-1H-benzo[8,8a][1]benzopyrano[2,3-e]isoindole], the half-maximal inhibitory concentration (IC50) in data set [1] (setting [2]) amounted to 0.016 µg/mL (≈ 0.04 µM). Besides, the CC50 in the data set “in vitro” is 6.3 to 12.5 µg/mL (≈ 15.8 to 31.3 µM).
